Data taken from US10912741B2, “Prevention of liver cancer with safranal-based formulations” (United Arab Emirates University, priority 2019, dated 2021).
Marks after values point to notes of the source that are not given here.

Experiments:
iNOS = experiment: Immunohistochemical staining of liver sections, iNOS positive cells; format: in vivo, albino Wistar rats; settings: mean±SEM, 8 rats
Method: (§1) The experimental hepatocarcinogenesis model was developed according to a protocol by Espandiaria et al. that was adapted for our purposes. To initiate and promote hepatocarcinogenesis, diethylnitrosamine (DEN) and 2-acetylaminofluorene (2-AAF) were used, respectively. For hepatocarcinogenesis initiation in this model, a single DEN dose (200 mg/kg b.wt.) dissolved in saline was injected intraperitoneally. After initiation, all rats underwent one period of 5-days fasting, as mitotic proliferative stimuli. To promote hepatocarcinogenesis, 2-acetylaminofluorene (2-AAF) was introduced in the form of six daily intragastric doses (30 mg/kg in 1% Tween 80); two weeks after DEN treatment.
Safranal at doses of 25 mg/kg by weight (b.wt.) and 50 mg/kg b.wt, was administrated orally to rats. These doses have been reported to suppress chemically-induced oxidative damage in rats. A total of 40 adult male albino Wistar rats were randomly divided into […] (n=8) and were subjected to different treatments. Group 1 (control) was orally administered distilled water (5 ml/kg b.wt.) throughout the experimental duration and were injected with a single dose of saline. Group 2 (Safranal only) was subjected to a safranal dose (50 mg/kg b.wt.) through oral administration for the duration of the experimental period. Hepatocarcinogenesis was induced by DEN and promoted by 2-AAF, as reported previously, in group 3 (HCC). Rats in protective groups (groups 4-5) were treated with low/high doses of saffron-based safranal suspensions, at the beginning of promotion periods and continued for 12 weeks. The low dosage treatment with safranal consisted of 25 mg/kg b.wt., and the high dosage treatment consisted of 50 mg/kg b.wt. The experimental design is illustrated in FIG. 1.
(§2) For immunohistochemical staining, mounted sections were immersed in sodium citrate buffer (0.1 M, pH 6) and placed in a water bath for 15 minutes to unmask antigen epitopes. […] Ten fields were randomly selected to quantify positive cells, in individual samples (400×). […]

NF-kB-p65 = experiment: Immunohistochemical staining of liver sections, NF-kB-p65 positive cells; format: in vivo, albino Wistar rats; settings: low/high doses of safranal, DEN-exposed rats, vs HCC group
Method: as §1
(§3) Safranal at doses of 25 mg/kg by weight (b.wt.) and 50 mg/kg b.wt, was administrated orally to rats. These doses have been reported to suppress chemically-induced oxidative damage in rats. A total of 40 adult male albino Wistar rats were randomly divided into […] (n=8) and were subjected to different treatments. […]
as §2

[1] = test system: NF-kB-p65 nuclear localization; experiment: NF-kB-p65 nuclear localization in nuclear extracts; format: in vivo, albino Wistar rats; settings: animal groups pre-treated with safranal (DEN-exposed)
Text: DEN, 2-AAF, 5, 5′-dithiobis-(2-nitrobenzoic acid thiobarbituric acid, Folin's reagent, pyrogallol, SOD enzyme, H2O2, and bovine albumin were obtained from Sigma Chemical Co. (St. Louis, Mo.). Nf-kB nuclear localization assay kit was purchased from (Ser. No. 10/007,889, Cayman Chemical Company, Ann Arbor, Mich., USA).
as §1, §3

[2] = test system: caspase-3 and -7 in HepG2 cells; experiment: Caspase-3 and -7 assay (Caspase-Glo 3/7); format: cell-based, human; settings: 1 mM, 48 hours
Method: HepG2, were cultured in RPMI 1640 medium (HyClone, USA) and 1% of 100 U/ml penicillin and 100 ug/ml streptomycin (Sigma, USA) supplemented with 10% fetal bovine serum (Sigma, USA) at 37° C. in a humidified 5% CO2 atmosphere. Cells were sub-cultured each 4-6 days using trypsin 0.25% (Hyclone, USA).
HepG2 cells were seeded in 96-well plates at the density of 10000 cells/well and grown in 100 uL of complete growth medium. Complete growth medium was replaced by serum-free medium after cells were allowed to attach for 24 hours; after which cells were incubated for at least 12 hours. Cells were incubated for 48 hours after treatment with various concentrations of safranal (1 mM, 0.7 mM, 0.5 mM) prepared from 20 mM stock solution. After incubation period, caspase-3 and -7 activities were measured using Caspase-Glo 3/7 luminescent assay kit according to manufacturer's instruction (Promega, USA).

[3] = test system: alveolar human lung cancer A549; settings: A549 cell line, reported in the background; cited from earlier work
[4] = test system: human prostate cancer PC-3 cell lines; settings: PC-3 cell line, reported in the background; cited from earlier work

With `CC1=C(C=O)C(C)(C)CC=C1` [Safranal, 2,6,6-trimethylcyclohexa-1,3-diene-1-carbaldehyde] the iNOS positive cells (iNOS; HCC (DEN/2-AAF) rats + safranal high dose 50 mg/kg b.wt. oral, 12 weeks) was 2.57 ± 0.30^b positive cells/field, the iNOS positive cells (iNOS; HCC (DEN/2-AAF) rats + safranal low dose 25 mg/kg b.wt. oral, 12 weeks) was 5.09 ± 0.26^a&b positive cells/field and the iNOS positive cells (iNOS; safranal alone 50 mg/kg b.wt. oral, no DEN (group 2)) was 0.87 ± 0.04 positive cells/field. For the same compound, the “number of NF-kB-p65-positive cells” value (NF-kB-p65) was “significantly reduced the number of NF-kB-p65-positive cells”, the “NF-kB-p65 level in nuclear extracts” value [1] was “parallel decrease in NF-kB-p65 level in nuclear extracts” and the “caspase-3 and -7 activities” value [2] was “significant increase in caspase-3 and -7 activities”. For the same compound, the apoptosis [3] was “induce apoptosis” and the apoptosis [4] was “induce apoptosis”.
